One assay has as its system HT29 cells. As to the kind of experiment: CyQuant cell proliferation activity test in HT29 cells. Format: cell-based. The conditions noted are these: Homo sapiens, HT-29, 72 h, 2000 cells per well, 3 days incubation, IC50 by XLFIT, read-out: HT29_IC50_nM. As to the method:
HT29 cells were purchased from Nanjing Cobioer Biosciences Co., Ltd.; RPMI-1640 medium, fetal bovine serum, Trypsin-EDTA (0.25%), 96-well plates, and CyQuant reagents were purchased from ThermoFisher (USA); DMSO was purchased from SIGMA (USA).
Culture HT29 cells with RPMI-1640 containing 10% fetal bovine serum under the condition of 37° C. and 5% CO2. Only cells in the logarithmic growth phase can be used for the test.
Use the CyQuant reagent to detect the proliferation inhibitory activity of compounds on HT29 cells. Adjust the cell density and inoculate 100 μL per well into the 96-well plate (HT29 at 2000 cells per well), then incubate overnight under the condition of 37° C. and 5% CO2. Add compounds of various target concentrations (initial concentration of 3000 nM, 3-fold dilution, 9 concentration gradients), and make the DMSO content 0.2%. Incubate the cell plates at 37° C. and 5% CO2 for 3 days. Incubate with CyQuant reagent for 1 h, read the plate by Envision, and calculate IC50 using XLFIT.

A further assay has as its system OVCAR3 cells. As to the kind of experiment: Cell proliferation activity test in OVCAR3 cells (CyQUANT Direct). Format: cell-based. The conditions noted are these: Homo sapiens, OVCAR-3, 72 h, 3 days incubation, CyQUANT fluorescence detection, read-out: OVCAR-3_IC50_nM. As to the method:
OVCAR3 cells were purchased from Nanjing Cobioer Biosciences Co., Ltd. RPMI-1640 medium, fetal bovine serum, and the CyQUANT Direct Cell Proliferation Assay kit were purchased from Thermo Fisher Scientific, USA; 96-well cell culture plates were sourced from Corning, USA.
Culture OVCAR3 cells with RPMI-1640 medium containing 10% fetal bovine serum and incubate them in a 5% CO2 incubator at 37° C. Only cells in the logarithmic growth phase can be used for the test.
Inoculate OVCAR3 cells into a 96-well cell culture plate at 90 μL per well and incubate overnight in a 5% CO2 incubator at 37° C. Dissolve the compound powder in DMSO to prepare a stock solution of 10 mM. Then perform gradient dilution for the compounds in the microplate to achieve a final concentration of 0-10 μM. Add 10 μL of cell culture medium containing compounds to each well to make the final DMSO content 0.2%. Incubate the cell plates in a 5% CO2 incubator at 37° C. for 3 days. Add 100 μL of CyQUANT detection reagent to each well, react at 37° C. for 60 min, and perform fluorescence detection using the PerkinElmer Envision.

The target of assay [1] is T1, Human KIF18A (amino acid sequence 1-417) (Homo sapiens, UniProt Q8NI77).
T1 construct: purchased Viva Biotech (Shanghai) Ltd
T1 sequence (Q8NI77 1-417): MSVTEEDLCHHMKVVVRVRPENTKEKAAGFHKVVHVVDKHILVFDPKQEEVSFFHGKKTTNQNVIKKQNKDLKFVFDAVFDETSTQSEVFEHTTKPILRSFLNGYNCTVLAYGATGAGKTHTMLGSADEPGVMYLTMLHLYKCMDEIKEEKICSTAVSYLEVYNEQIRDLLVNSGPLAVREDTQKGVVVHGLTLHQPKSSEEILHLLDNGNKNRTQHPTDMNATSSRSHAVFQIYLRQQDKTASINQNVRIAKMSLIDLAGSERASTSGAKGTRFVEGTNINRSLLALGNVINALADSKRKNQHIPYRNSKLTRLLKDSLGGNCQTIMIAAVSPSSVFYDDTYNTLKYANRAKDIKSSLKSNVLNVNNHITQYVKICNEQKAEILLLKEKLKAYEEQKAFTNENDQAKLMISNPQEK
Kind of assay: Enzymatic activity test (ADP-Glo, microtubule-stimulated KIF18A ATPase). It counts as biochemical. The conditions noted are these: 60 μg/mL microtubules, 25 μM ATP, 2.5 nM KIF18A protein, 120 min at ambient temperature, read-out: KIF18A_nM. As to the method:
Human KIF18A (amino acid sequence 1-417) was purchased from Viva Biotech (Shanghai) Ltd.; the ADP-Glo™ protein kinase kit was acquired from Promega, USA; tubulin was sourced from Cytoskeleton, USA; and the 384-well assay plate and Envision multifunctional microplate reader were obtained from PerkinElmer, USA.
Dissolve the compound powder in DMSO to prepare a stock solution of 10 mM. Then perform gradient dilution for the compounds in the microplate to achieve a final concentration of 0-10 μM. Then, add 2.5 μL each of tubulin, compound, ATP, and KIF18A protein to the microplate in sequence for reaction at ambient temperature for 120 min. The final concentrations in the enzyme reaction are 60 μg/mL for microtubules, 25 μM for ATP, and 2.5 nM for KIF18A protein. After the enzyme reaction, add 10 μL of ADP-GLO reaction reagent to each well and incubate at ambient temperature for 30 min. After that, add 20 μL of detection reagent to each well and incubate at ambient temperature for 30 min in the dark. Finally, perform chemiluminescence detection using the PerkinElmer Envision.

pIC50: −log10 of the molar value.

Turning to `O=C(Nc1cc2ncnn2c(N2CCC(F)(F)CC2)n1)c1cc(F)c(NS(=O)(=O)CCO)cc1N1CCC2(CC1)CC2` [Example 25, (2-(6-azaspiro[2.5]oct-6-yl)-5-fluoro-4-{[(2-hydroxyethyl)sulphonyl]amino}phenyl)-N-[5-(4,4-difluoropiperidinyl)(4-hydro-1,2,4-triazolo[4,3-e]pyrimidin-7-yl)]formamide], the pIC50 in the assay with HT29 cells was 7.08; in the assay on OVCAR3 cells, 7.34; in assay [1], 8.30.
With `Cc1nnc2cc(NC(=O)c3ccc(NS(=O)(=O)CCO)cc3N3CCC4(CC3)CC4)nc(N3CCC(F)(F)CC3)n12` [Example 27, N-(5-(4,4-difluoropiperidin-1-yl)-3-methyl-[1,2,4]triazolo[4,3-c]pyrimidin-7-yl)-4-(2-hydroxyethylsulfonamido)-2-(6-azaspiro[2.5]octan-6-yl)benzamide], the pIC50 is 7.48 with HT29 cells, 7.64 in the assay with OVCAR3 cells and 7.89 in assay [1].
In the same order, the values of `O=C(Nc1cc2ccsc2c(N2CCC(F)(F)CC2)n1)c1ccc(NS(=O)(=O)CCO)cc1N1CCC2(CC1)CC2` [Example 28, N-(7-(4,4-difluoropiperidin-1-yl)thieno[2,3-c]pyridin-5-yl)-4-(2-hydroxyethylsulfonamido)-2-(6-azaspiro[2.5]octan-6-yl)benzamide] are 8.05, 7.59 and 7.34.
The like results for `O=C(Nc1cc2ccoc2c(N2CCC(F)(F)CC2)n1)c1ccc(NS(=O)(=O)CCO)cc1N1CCC2(CC1)CC2` [Example 29, N-(7-(4,4-difluoropiperidin-1-yl)furo[2,3-c]pyridin-5-yl)-4-(2-hydroxyethylsulfonamido)-2-(6-azaspiro[2.5]octan-6-yl)benzamide] were, in that order, 7.96, 7.89 and 7.55.
For `O=C(Nc1cc(N2CCC(F)(F)CC2)c2occc2c1)c1ccc(NS(=O)(=O)CCO)cc1N1CCC2(CC1)CC2` [Example 30, N-(7-(4,4-difluoropiperidin-1-yl)benzofuran-5-yl)-4-(2-hydroxyethylsulfonamido)-2-(6-azaspiro[2.5]octan-6-yl)benzamide], the pIC50 with HT29 cells is 8.00; in the assay on OVCAR3 cells, 8.15; in assay [1], 7.57.
Regarding `O=C(Nc1cc2occc2c(N2CCC(F)(F)CC2)n1)c1ccc(NS(=O)(=O)CCO)cc1N1CCC2(CC1)CC2` [Example 31, N-(4-(4,4-difluoropiperidin-1-yl)furo[3,2-c]pyridin-6-yl)-4-(2-hydroxyethylsulfonamido)-2-(6-azaspiro[2.5]octan-6-yl)benzamide], the pIC50 in the assay with HT29 cells was 8.05; with OVCAR3 cells, 8.10; in assay [1], 7.15.
The like results for `O=C(Nc1nc(N2CCC(F)(F)CC2)c2occc2n1)c1ccc(NS(=O)(=O)CCO)cc1N1CCC2(CC1)CC2` [Example 32, N-(4-(4,4-difluoropiperidin-1-yl)furo[3,2-d]pyrimidin-2-yl)-4-((2-hydroxyethyl)sulfanilamide)-2-(6-azaspiro[2.5]octan-6-yl)benzamide] were, in that order, 6.03, 6.46 and 8.10.
The like results for `Cn1cnc2cc(NC(=O)c3ccc(NS(=O)(=O)CCO)cc3N3CCC4(CC3)CC4)nc(N3CCC(F)(F)CC3)c21` [Example 34] were, in that order, 6.35, 6.78 and 7.20.
On to `Cn1cnc2c(N3CCC(F)(F)CC3)nc(NC(=O)c3ccc(NS(=O)(=O)CCO)cc3N3CCC4(CC3)CC4)cc21` [Example 35, N-(4-(4,4-difluoropiperidin-1-yl)-1-methyl-1H-imidazolo[4,5-c]pyridin-6-yl)-4-((2-hydroxyethyl)sulfonamido)-2-(6-azaspiro[2.5]octan-6-yl)benzamide], for which the pIC50 with HT29 cells was 7.24; in the assay with OVCAR3 cells, 7.57; in assay [1], 7.54.
As to `Cn1ncc2c(N3CCC(F)(F)CC3)nc(NC(=O)c3ccc(NS(=O)(=O)CCO)cc3N3CCC4(CC3)CC4)cc21` [Example 36], the pIC50 in the assay on HT29 cells is 7.21; in the assay on OVCAR3 cells it was 7.19; in assay [1], 7.41.
In the same order, the values of `Cn1ccc2cc(NC(=O)c3ccc(NS(=O)(=O)CCO)cc3N3CCC4(CC3)CC4)nc(N3CCC(F)(F)CC3)c21` [Example 37] are 7.60, 6.92 and 6.92.
For `O=C(Nc1cc2nsnc2c(N2CCC(F)(F)CC2)n1)c1ccc(NS(=O)(=O)CCO)cc1N1CCC2(CC1)CC2` [Example 39], the pIC50 is 7.74 in the assay on HT29 cells, 7.82 in the assay with OVCAR3 cells and 7.42 in assay [1].
Turning to `O=C(Nc1cc(N2CCC(F)(F)CC2)c2nsnc2c1)c1ccc(NS(=O)(=O)CCO)cc1N1CCC2(CC1)CC2` [Example 40, 2-(6-Azaspiro[2.5]oct-6-yl)-4-(2-hydroxyethylsulfonyl)aminophenyl)-N-[4-(4,4-difluoropiperidinyl)benzo[3,4-c]1,2,5-thiadiazole-5-ylcarboxamide], the pIC50 was 8.00 in the assay on HT29 cells, 7.92 in the assay with OVCAR3 cells and 7.49 in assay [1].
In the same order, the values of `O=C(Nc1cc(N2CCC(F)(F)CC2)c2ncsc2c1)c1ccc(NS(=O)(=O)CCO)cc1N1CCC2(CC1)CC2` [Example 41, 2-{6-Azaspiro[2.5]octan-6-yl}-N-[4-(4,4-difluoropiperidin-1-yl)-1,3-benzothiazol-6-yl]-4-(2-hydroxyethanesulfonamido) benzamide] are 8.40, 8.40 and 7.42.
Turning to `Nc1nc2c(N3CCC(F)(F)CC3)c(F)c(NC(=O)c3ccc(NS(=O)(=O)CCO)cc3N3CCC4(CC3)CC4)cc2s1` [Example 42, N-[2-amino-4-(4,4-difluoropiperidin-1-yl)-5-fluoro-1,3-benzothiazol-6-yl]-2-{6-azaspiro[2.5]octan-6-yl}-4-(2-hydroxyethanesulfonamido)benzamide], the pIC50 with HT29 cells was 7.77; in the assay on OVCAR3 cells, 8.15; in assay [1] it was 6.67.
In the case of `O=C(Nc1cc2c(c(N3CCC(F)(F)CC3)n1)C(=O)NCC2)c1ccc(NS(=O)(=O)CCO)cc1N1CCC2(CC1)CC2` [Example 43, N-(1-(4,4-difluoropiperidin-1-yl)-8-oxo-5,6,7,8-tetrahydro-2,7-naphthyridin-3-yl)-4-(2-hydroxyethylsulfonamido)-2-(6-azaspiro[2.5]octan-6-yl)benzamide], the figures for the pIC50 (in the assay on HT29 cells; in the assay with OVCAR3 cells; in assay [1]) were 7.77, 8.15 and 7.54, respectively.
As to `O=C(Nc1cc2cccnc2c(N2CCC(F)(F)CC2)n1)c1ccc(NS(=O)(=O)CCO)cc1N1CCC2(CC1)CC2` [Example 44], the pIC50 is 7.59 in the assay with HT29 cells, 7.68 in the assay with OVCAR3 cells and 6.98 in assay [1].

Values taken from patent US20260159500A1, “KINESIN KIF18A INHIBITOR AND USE THEREOF” (SHANGHAI APEIRON THERAPEUTICS COMPANY LIMITED, priority 2022, published 2026).
